Test results as given in patent US20030181436A1, “Treatment for AIDS, HIV, and other related diseases and compounds for use therewith” (priority 2001, published 2003).

Key:
Assay type in all cases: cell-based
[1] = test system: TNFα induced ACH-2 cells (HIV IIIB provirus); assay: ACH-2 latent infection assay, supernatant reverse transcriptase activity
Experimental: U1 and ACH-2 cells were obtained from the AIDS Research and Reference Reagent Program and maintained under standard culture conditions in RPMI 1640 supplemented with 10% fetal bovine serum (heat inactivated), supplemented with 2 mM […], 100U/ml penicillin and 100 μg/ml, streptomycin. U1 cells were derived from the histocytic leukemia cell line U937, and contain a single integrated copy (HIV IIIB) […] a cytokine and/or phorbol inducible provirus. ACH-2 cells are derived from the A3.01 T lymphoblastic cell line, and contain 2 copies of the HIV IIIB provirus, however only one is cytokine and/or phorbol inducible. Cultures were maintained in such a way as to ensure exponential growth of the populations. At the time of the assay, cells were collected by centrifugation and counted by hemacytometer. If cell viability by Trypan Blue dye exclusion was less than 70% the assay was terminated. The cells were adjusted to 5×10^4 cells/mL and 100 μL, placed in 96 well plates with 100 μL media containing a final concentration of […] TNFα and the test compound. Cultures were incubated for 3 days and supernatants harvested. Compound toxicity was determined by MTS dye reduction. Virus expression was measured by supernatant reverse transcriptasc activity.
(§1) Reverse transcriptase activity was measured in cell-free supernatants. Tritiated thymidine triphosphate (NEN) (TTP) was resuspended in distilled H2O at 5 Ci/mL. Poly rA and oligo dT were prepared as a stock solution which was kept at −20° C. The RT reaction buffer was prepared fresh on a daily basis and consists of 125 μL 1.0 M EGTA, 125 μL dH2O, 110 μL 10% SDS, 50 μL 1.0 M Tris (pH 7.4), 50 μL, 1.0 M DTT, and 40 μL 1.0 M MgCl2. These three solutions were mixed together in a ratio of 2 parts TTP, 1 part poly rA:oligo dT, and 1 part reaction buffer. Ten microliters of this reaction mixture was placed in a round bottom microtiter plate and 15 μL of virus containing supernatant was added and mixed. The plate was incubated at 37° C. in a water bath with a solid support to prevent submersion of the plate and incubated for 60 minutes. Following reaction, the reaction volume was spotted onto pieces of DE81 paper, washed 5 times for 5 minutes each in a 5% sodium phosphate buffer, 2 times for 1 minute each in distilled water, 2 times for 1 minute each in 70% ethanol, and then dried. Opti-Fluor O was added to each sample and incorporated radioactivity was quantitated utilizing a Wallac 1450 Microbetaplus liquid scintillation counter.

[2] = test system: HIV RoJo (a clinical isolate); assay: Chronically infected PBMCs, supernatant reverse transcriptase activity
Experimental: as §1
In these studies PBMCs are infected with HIV RoJo (a clinical isolate) and a dynamic population of infected PBMCs established over a period of 2 to 3 weeks. This population of infected PBMCs was established and maintained by the addition of fresh PBMCs in a 1:1 ratio every 7 days, thus overcoming the lost of PBMCs to normal cell death processes. Thus a population of cells was established that consisted of uninfected cells, short lived infected cells and long lived infected cells. In experiments where AZT was added to prevent re-infection of the population, we typically saw a 50% reduction in infection following a 7 day treatment. This means that 50% of the virus production from the infected […] population was due re-infection. […] Thus there was a population of infected PBMCs present ([…] of the total) which survived for extended periods of time and thus met the definition of being chronically infected.

HeLa CD4 LTR β-gal cells = assay: Cytotoxicity for HeLa CD4 LTR β-gal cells
Experimental: At assay termination the assay plates were stained with the soluble tetrazolium-based dye MTS (CellTiter® Reagent, Promega) to determined cell viability and quantify compound toxicity. […] At termination of the assay 20 μL of MTS reagent was added per well. The wells were incubated for 4 h at 37° C., 5% CO2. Adhesive plate scalers were used in place of the lids, the sealed plate was inverted several times to mix the soluble formazan product and the plate was read spectrophotometrically at 490 nm with a 650 nm reference wavelength on a Molecular Devices Vmax plate reader.
This cell line represents one of 3 standard models for performing time of addition assays.

Zinc Iodiscorbate [Compound Z]
activity in the ACH-2 assay [1]: inactive | % VC ([1]; 0.00063 μg/ml, exp 2): 96.4% | RT ACTIVITY MEAN ([1]; 0.00063 μg/ml, exp 2): 18594 cpm | % VC ([1]; 0.002 μg/ml, exp 2): 106.4% | RT ACTIVITY MEAN ([1]; 0.002 μg/ml, exp 2): 20516 cpm | % VC ([1]; 0.00625 μg/ml, exp 2): 100.6% | RT ACTIVITY MEAN ([1]; 0.00625 μg/ml, exp 2): 19411 cpm | % VC ([1]; 0.02 μg/ml, exp 2): 116.0% | RT ACTIVITY MEAN ([1]; 0.02 μg/ml, exp 2): 22382 cpm | % VC ([1]; 0.0625 μg/ml, exp 2): 111.6% | RT ACTIVITY MEAN ([1]; 0.0625 μg/ml, exp 2): 21532 cpm | % VC ([1]; 0.2 μg/ml, exp 2): 114.0% | RT ACTIVITY MEAN ([1]; 0.2 μg/ml, exp 2): 21983 cpm | % VC ([1]; 0.625 μg/ml, exp 2): 104.2% | RT ACTIVITY MEAN ([1]; 0.625 μg/ml, exp 2): 20108 cpm | % VC ([1]; 2 μg/ml, exp 2): 104.5% | RT ACTIVITY MEAN ([1]; 2 μg/ml, exp 2): 20151 cpm | % VC ([1]; 6.25 μg/ml, exp 2): 60.8% | RT ACTIVITY MEAN ([1]; 6.25 μg/ml, exp 2): 11729 cpm | % VC ([1]; 20 μg/ml, exp 2): 5.1% | RT ACTIVITY MEAN ([1]; 20 μg/ml, exp 2): 982 cpm | % VC ([1]; 62.5 μg/ml, exp 2): 0.83% | RT ACTIVITY MEAN ([1]; 62.5 μg/ml, exp 2): 160 cpm | % VC ([1]; 200 μg/ml, exp 2): 0.41% | RT ACTIVITY MEAN ([1]; 200 μg/ml, exp 2): 80 cpm | % VC ([1]; 0.00063 μG/Ml, exp 1): 107.6% | RT ACTIVITY (cpm) MEAN ([1]; 0.00063 μG/Ml, exp 1): 71887 cpm | % VC ([1]; 0.002 μG/Ml [c9], exp 1): 107.8% | RT ACTIVITY (cpm) MEAN ([1]; 0.002 μG/Ml [c9], exp 1): 71981 cpm | % VC ([1]; 0.002 μG/Ml [c11], exp 1): 107.5% | RT ACTIVITY (cpm) MEAN ([1]; 0.002 μG/Ml [c11], exp 1): 71843 cpm | % VC ([1]; 0.00625 μG/Ml, exp 1): 93.3% | RT ACTIVITY (cpm) MEAN ([1]; 0.00625 μG/Ml, exp 1): 62338 cpm | % VC ([1]; 0.0625 μG/Ml, exp 1): 123.3% | RT ACTIVITY (cpm) MEAN ([1]; 0.0625 μG/Ml, exp 1): 82351 cpm | % VC ([1]; 0.2 μG/Ml, exp 1): 116.0% | RT ACTIVITY (cpm) MEAN ([1]; 0.2 μG/Ml, exp 1): 77521 cpm | % VC ([1]; 0.625 μG/Ml, exp 1): 118.9% | RT ACTIVITY (cpm) MEAN ([1]; 0.625 μG/Ml, exp 1): 79421 cpm | % VC ([1]; 2 μG/Ml, exp 1): 114.0% | RT ACTIVITY (cpm) MEAN ([1]; 2 μG/Ml, exp 1): 76125 cpm | % VC ([1]; 6.25 μG/Ml, exp 1): 112.7% | RT ACTIVITY (cpm) MEAN ([1]; 6.25 μG/Ml, exp 1): 75319 cpm | % VC ([1]; 20 μG/Ml, exp 1): 107.9% | RT ACTIVITY (cpm) MEAN ([1]; 20 μG/Ml, exp 1): 72063 cpm | % VC ([1]; 62.5 μG/Ml, exp 1): 3.27% | RT ACTIVITY (cpm) MEAN ([1]; 62.5 μG/Ml, exp 1): 2186 cpm | % VC ([1]; 200 μG/Ml, exp 1): 2.23% | RT ACTIVITY (cpm) MEAN ([1]; 200 μG/Ml, exp 1): 1487 cpm | IC50 ([1]; ACH2, exp 1, Table 2): IC50 (μG/Ml) = 43.51 | IC50 ([1]; ACH-2, experiment 1, Table 1): 43.5 µg/mL | IC50 ([1]; ACH-2, experiment 2, Table 1): 8.9 µg/mL | ACH2 EC50 ([1]; exp 2, Table 4): 8.9 µg/mL | IC50 in chronically infected PBMCs ([2]; 21 days): approximately 30 μg/ml | Percent Control by Supernatant Reverse Transcriptase activity ([2]; Day 7, 1 μg/ml): 256 Percent Control | Percent Control by Supernatant Reverse Transcriptase activity ([2]; Day 7, 5 μg/ml): 303 Percent Control | Percent Control by Supernatant Reverse Transcriptase activity ([2]; Day 7, 10 μg/ml): 230 Percent Control | Percent Control by Supernatant Reverse Transcriptase activity ([2]; Day 7, 25 μg/ml): 217 Percent Control | Percent Control by Supernatant Reverse Transcriptase activity ([2]; Day 7, 50 μg/ml): 229 Percent Control | Percent Control by Supernatant Reverse Transcriptase activity ([2]; Day 7, 100 μg/ml): 167 Percent Control | Percent Control by Supernatant Reverse Transcriptase activity ([2]; Day 14, 1 μg/ml): 63 Percent Control | Percent Control by Supernatant Reverse Transcriptase activity ([2]; Day 14, 5 μg/ml): 87 Percent Control | Percent Control by Supernatant Reverse Transcriptase activity ([2]; Day 14, 10 μg/ml): 69 Percent Control | Percent Control by Supernatant Reverse Transcriptase activity ([2]; Day 14, 25 μg/ml): 74 Percent Control | Percent Control by Supernatant Reverse Transcriptase activity ([2]; Day 14, 50 μg/ml): 67 Percent Control | Percent Control by Supernatant Reverse Transcriptase activity ([2]; Day 14, 100 μg/ml): 49 Percent Control | Percent Control by Supernatant Reverse Transcriptase activity ([2]; da 21, 1 μg/ml): 80 Percent Control | Percent Control by Supernatant Reverse Transcriptase activity ([2]; da 21, 5 μg/ml): 70 Percent Control | Percent Control by Supernatant Reverse Transcriptase activity ([2]; da 21, 10 μg/ml): 56 Percent Control | Percent Control by Supernatant Reverse Transcriptase activity ([2]; da 21, 25 μg/ml): 60 Percent Control | Percent Control by Supernatant Reverse Transcriptase activity ([2]; da 21, 50 μg/ml): 48 Percent Control | Percent Control by Supernatant Reverse Transcriptase activity ([2]; da 21, 100 μg/ml): 22 Percent Control | TOXICITY VALUES (Cell Titer) MEAN (HeLa CD4 LTR β-gal cells; 3.2 μG/mL): 1.156 O. D. | TOXICITY VALUES (Cell Titer) MEAN (HeLa CD4 LTR β-gal cells; 10 μG/mL): 1.176 O. D. | % CC (HeLa CD4 LTR β-gal cells; 100 μG/mL): 22.6% | TOXICITY VALUES (Cell Titer) MEAN (HeLa CD4 LTR β-gal cells; 100 μG/mL): 0.259 O. D. | % CC (HeLa CD4 LTR β-gal cells; 320 μG/mL): 18.5% | TOXICITY VALUES (Cell Titer) MEAN (HeLa CD4 LTR β-gal cells; 320 μG/mL): 0.212 O. D. | % CC (HeLa CD4 LTR β-gal cells; 1000 μG/mL): 18.2% | TOXICITY VALUES (Cell Titer) MEAN (HeLa CD4 LTR β-gal cells; 1000 μG/mL): 0.208 O. D. | TC50 (HeLa CD4 LTR β-gal cells; HeLa CD4 LTR β-gal cells): 75 µg/mL | cytotoxic effects on the HeLa CD4 LTR β-gal cells (HeLa CD4 LTR β-gal cells; initial testing): no significant cytotoxic effects
